The text below walks through data of ChEMBL document CHEMBL1201862, “PubChem BioAssay data set” (2004).

Test in all cases: NCI tumour cell line growth inhibition, 48 h
The test system of experiment [1] is K562.
The subject of experiment [2] is SF-268.
Experiment [3] relates to UACC-257.
The test system of experiment [4] is RXF 393.
Experiment [5] concerns TK-10.
Experiment [6] concerns HOP-62.
In experiment [7] the test system is EKVX.
Experiment [8] relates to OVCAR-5.
In experiment [9] the test system is HL-60.
The subject of experiment [10] is RPMI-8226.
Experiment [11] has as its system CCRF-CEM.
Experiment [12] has as its system KM12.
The test system of experiment [13] is NCI-H522.
In experiment [14] the test system is HCT-15.
For experiment [15], the system named is SNB-19.
Experiment [16] has as its system IGROV-1.
Experiment [17] deals with OVCAR-4.
The test system of experiment [18] is M14.

The structures appear in SMILES notation.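 These data come from cells grown in 96-well plates and exposed to compound for 48 hours at five concentrations. Abbreviation: GI50, concentration required for 50% inhibition of growth.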 Calls of active or inactive are those of the source. Cut-off read from the data, not from the text of the source: active = GI50 up to about 1.1 µM and inactive = higher. Some results are limits rather than exact numbers.

`CC(=O)NNc1nc(C)c(C(=O)/C=C/c2ccc(NC(C)=O)cc2)s1`: the GI50 in experiment [1] was > 100 µM (inactive); in experiment [2] it was > 100 µM (inactive); in [3] it was 98.6 µM (inactive); in experiment [4] it was > 100 µM (inactive); in experiment [5], > 100 µM (inactive); in experiment [6], > 100 µM (inactive). Besides, the GI50 in [7] is 71.3 µM (inactive); in [8], > 100 µM (inactive); in experiment [9] it was > 100 µM (inactive); in experiment [10], > 100 µM (inactive); in experiment [11], > 100 µM (inactive); in experiment [12], > 100 µM (inactive). Also, the GI50 was > 100 µM (inactive) in [13], above 100 µM in experiment [14], > 100 µM (inactive) in experiment [15] and > 100 µM (inactive) in experiment [16].

Consider `N=C(N)NS(=O)(=O)c1ccc(NC(=O)c2cccn3c(=O)c4ccccc4nc23)cc1`, for which the GI50 is 32.3 µM (inactive) in [1]; > 100 µM (inactive) in experiment [2]; 19.7 µM (inactive) in experiment [3]; 62.8 µM (inactive) in experiment [4]; 61 µM (inactive) in experiment [5]; > 100 µM (inactive) in experiment [6]. Further, the GI50 in experiment [7] is > 100 µM (inactive); in experiment [9], 24.5 µM (inactive); in experiment [10] it was 24.9 µM (inactive); in experiment [11], 35.6 µM (inactive); in experiment [12], 15.9 µM (inactive); in [17], 41.6 µM (inactive). Further, the GI50 is 35 µM (inactive) in experiment [13], > 100 µM (inactive) in [15], 60.8 µM (inactive) in experiment [18] and 56 µM (inactive) in experiment [16].

With `C(=C\c1cc(CCc2nc3ccccc3[nH]2)n[nH]1)/c1ccccc1`, the GI50 in experiment [1], in [2], in experiment [3], in [4], in experiment [5] and in [6] was > 100 µM (inactive) each time. The GI50 in experiment [7] was > 100 µM (inactive); in [8], > 100 µM (inactive); in experiment [9] it was > 100 µM (inactive); in [10], > 100 µM (inactive); in [11] it was 89.3 µM (inactive); in experiment [12], > 100 µM (inactive). The GI50 in [17] was > 100 µM (inactive); in experiment [13] it was > 100 µM (inactive); in [14] it was above 100 µM; in experiment [15] it was > 100 µM (inactive); in experiment [18] it was > 100 µM (inactive); in [16], > 100 µM (inactive).

Take `CCCCCCCCCCCCOC(=S)NC`: the GI50 is 19.6 µM (inactive) in experiment [1]; 20.2 µM (inactive) in experiment [2]; 20.3 µM (inactive) in experiment [3]; 16.6 µM (inactive) in experiment [4]; 12.8 µM (inactive) in [5]; 22.2 µM (inactive) in [6]. The GI50 in [7] is 20.4 µM (inactive); in experiment [8], 12.6 µM (inactive); in experiment [9], 27.6 µM (inactive); in experiment [10] it was 16.9 µM (inactive); in [11], 33.4 µM (inactive); in experiment [12] it was 14.3 µM (inactive). Besides, the GI50 in experiment [17] was 24.1 µM (inactive); in experiment [13], 27.5 µM (inactive); in experiment [14], 17.8 µM; in experiment [15], 33.4 µM (inactive); in experiment [18] it was 19.7 µM (inactive); in experiment [16], 18 µM (inactive).

Consider `C/C(CC(=O)NCCc1ccccc1)=N\NC(=O)C[n+]1ccccc1`, for which the GI50 in experiment [1], in [2], in experiment [3], in experiment [4], in experiment [5] and in experiment [6] was > 100 µM (inactive) in each case. The GI50 is > 100 µM (inactive) in experiment [7]; > 100 µM (inactive) in experiment [8]; > 100 µM (inactive) in [9]; > 100 µM (inactive) in [10]; > 10 µM (inactive) in experiment [11]; > 100 µM (inactive) in experiment [12]. Besides, the GI50 in experiment [13] is > 100 µM (inactive); in [14] it was above 100 µM; in experiment [18] it was > 100 µM (inactive); in [16] it was > 100 µM (inactive).

For `CC(=O)Nc1ccc(/C=c2\sc3nnc(CCC(=O)Nc4ccccc4Cl)n3c2=O)cc1`, the GI50 in experiment [1] is 24.2 µM (inactive); in experiment [2], 26.4 µM (inactive); in experiment [3], > 10 µM (inactive); in [4], 27.3 µM (inactive); in experiment [5], 37.8 µM (inactive); in [6], 54 µM (inactive). Moreover, the GI50 in [7] was > 100 µM (inactive); in [8], > 100 µM (inactive); in experiment [9], 19.8 µM (inactive); in experiment [10] it was 20.8 µM (inactive); in experiment [11] it was 18.3 µM (inactive); in experiment [12], 20.9 µM (inactive). The GI50 in [17] was 20.6 µM (inactive); in [13] it was 18.7 µM (inactive); in [14] it was 44.6 µM; in experiment [15], 38.9 µM (inactive); in [18], 16.7 µM (inactive); in [16], > 100 µM (inactive).

In the case of `COc1cc2c(cc1OC)C1[C@@H](c3ccccc3)OCN1CC2` (some centres not stated), the GI50 is > 63.1 µM (inactive) in experiment [1]; > 100 µM (inactive) in experiment [2]; > 100 µM (inactive) in experiment [3]; > 100 µM (inactive) in experiment [4]; > 100 µM (inactive) in experiment [5]; > 100 µM (inactive) in experiment [6]. Further, the GI50 in experiment [7] is > 100 µM (inactive); in [8] it was > 100 µM (inactive); in experiment [9], 54.5 µM (inactive); in experiment [10] it was 44.4 µM (inactive); in experiment [11] it was > 77.6 µM (inactive); in experiment [12], > 100 µM (inactive). In addition, the GI50 in [17] is > 100 µM (inactive); in [13], > 100 µM (inactive); in experiment [14], above 90.6 µM; in experiment [15] it was > 100 µM (inactive); in experiment [18], > 100 µM (inactive); in [16] it was > 100 µM (inactive).

On to `O=C(CC/C(CC(=O)c1ccc(Br)cc1)=N\O)Nc1ccc(Cl)c(Cl)c1`, for which the GI50 in experiment [1] was 25.4 µM (inactive); in [2], > 100 µM (inactive); in [3], 44.4 µM (inactive); in [4], 29.2 µM (inactive); in [5], 18 µM (inactive); in [6] it was > 100 µM (inactive). Moreover, the GI50 in experiment [7] is 29.3 µM (inactive); in experiment [8], 54.6 µM (inactive); in [9], 19.6 µM (inactive); in experiment [10], 46.1 µM (inactive); in [11], 37.6 µM (inactive); in [12] it was 67.8 µM (inactive). Moreover, the GI50 in experiment [17] was 64 µM (inactive); in [13], 20.5 µM (inactive); in experiment [14], 86.7 µM; in experiment [18] it was > 100 µM (inactive); in experiment [16], 60.7 µM (inactive).
